How the values were obtained:
βARR1 L129G = molecular target: T1, βARR1 L129G (Rattus norvegicus, UniProt P29066, L129G); assay: ITC binding to βARR1 mutant L129G; settings: 25 °C
T1 construct: βARR1 or βARR2 construct, with their C terminus truncated (at amino acid 393 or 394, respectively); GST (pGEX4T1) (N, cleaved yes); made in house; host or cells: E. coli BL21 (DE3) pLysS
Procedure: (§1) The expression and purification of β-arrestins have been described previously[44],[62]–[64]. In brief, E. coli BL21 (DE3) pLysS cells (New England Biolabs: C2527I) carrying pGEX4T1-Rattus norvegicus βARR1 or βARR2 construct, with their C terminus truncated (at amino acid 393 or 394, respectively), were cultured in Terrific Broth (Teknova) medium at 37 °C. After OD600 reached 0.6–0.8, the cells were induced with 0.1 mM isopropyl-β-D-thiogalactopyranoside (IPTG) at 18 °C overnight. Bacteria were collected by centrifugation (4,000 rpm), and cell pellets were resuspended in lysis buffer (20 mM HEPES, pH 8, 150 mM NaCl, 10% glycerol, 1 mM EDTA, 0.2 mM dithiothreitol (DTT), 1 mM phenylmethylsulfonyl fluoride, and 1 mM benzamidine) at 4 °C for 1 h. […] Eluted fractions were analysed by SDS–PAGE, pooled, concentrated using 30 kDa MWCO Amicon Ultra-15 Centrifugal Filter devices, flash-frozen in liquid nitrogen, and stored in aliquots at −80 °C. […] Protein concentrations for each protein were determined by ultraviolet absorption at 280 nm and extinction coefficients estimated using the ExPASy ProtParam tool[67].
(§2) ITC measurements were performed on a MicroCal iTC200 system at 25 °C. […] Protein concentrations were determined by spectrophotometry at 280 nm, using extinction coefficients calculated from each protein sequence via the ProtParam program. […]

βARR1 P133A = molecular target: T2, βARR1 P133A (Rattus norvegicus, UniProt P29066, P133A); assay: ITC binding to βARR1 mutant P133A; settings: 25 °C
T2 construct: βARR1 or βARR2 construct, with their C terminus truncated (at amino acid 393 or 394, respectively); GST (pGEX4T1) (N, cleaved yes); made in house; host or cells: E. coli BL21 (DE3) pLysS
Procedure: as §1, §2

βARR1 K138A = molecular target: T3, βARR1 K138A (Rattus norvegicus, UniProt P29066, K138A); assay: ITC binding to βARR1 mutant K138A; settings: 25 °C
T3 construct: βARR1 or βARR2 construct, with their C terminus truncated (at amino acid 393 or 394, respectively); GST (pGEX4T1) (N, cleaved yes); made in house; host or cells: E. coli BL21 (DE3) pLysS
Procedure: as §1, §2

βARR1 Y249A = molecular target: T4, βARR1 Y249A (Rattus norvegicus, UniProt P29066, Y249A); assay: ITC binding to βARR1 mutant Y249A
T4 construct: βARR1 or βARR2 construct, with their C terminus truncated (at amino acid 393 or 394, respectively); GST (pGEX4T1) (N, cleaved yes); made in house; host or cells: E. coli BL21 (DE3) pLysS
Procedure: as §1, §2

[1] = tested on: βARR2 conformation (AT1R); assay: Intramolecular FlAsH-BRET βARR2 conformational sensors; format: cell-based, human; settings: 50 μM, 15 min; AngII 10 μM
Procedure: Intramolecular FlAsH-BRET assays[72] were performed in HEK293 βARR1/2-knockout cells transiently transfected using FuGENE4K with 2 μg total DNA per 15 cm dish. Cells were transfected with 1.5 μg of pcDNA3.1 encoding human AT1R and 0.4 μg of a plasmid encoding the indicated RLuc–β-arrestin2–FlAsH biosensors. Twenty-four hours after transfection, cells were replated into poly-D-lysine-coated 96-well white, clear-bottom plates at 100,000 cells per well in MEM supplemented with 10% FBS. Forty-eight hours after transfection, cells were labelled with FlAsH-EDT2 (FlAsH II In-Cell Tetracysteine Detection Kit, Thermo Fisher) at a final concentration of 2.5 μM for 30 min at room temperature. Following labelling, cells were washed twice with BAL wash buffer (250 μM 2,3-dimercapto-1-propanol in HBSS), then equilibrated in HBSS supplemented with 20 mM HEPES (pH 7.4). Modulators were applied at 50 μM for 15 min, followed by addition of Prolume Purple substrate (Nanolight Technologies). Cells were then stimulated with 10 μM angiotensin II. BRET signals were recorded using a CLARIOstar Plus plate reader in kinetic mode (480 nm donor, 530 nm acceptor) for 30 min, and peak values were used for quantification. ΔNet BRET was calculated by subtracting baseline values from each condition, including agonist alone, modulator alone, or agonist plus modulator.

β-arrestin = assay: Functional assays (not specified); settings: peer review reply

T4 sequence (P29066 1-393 Y249A): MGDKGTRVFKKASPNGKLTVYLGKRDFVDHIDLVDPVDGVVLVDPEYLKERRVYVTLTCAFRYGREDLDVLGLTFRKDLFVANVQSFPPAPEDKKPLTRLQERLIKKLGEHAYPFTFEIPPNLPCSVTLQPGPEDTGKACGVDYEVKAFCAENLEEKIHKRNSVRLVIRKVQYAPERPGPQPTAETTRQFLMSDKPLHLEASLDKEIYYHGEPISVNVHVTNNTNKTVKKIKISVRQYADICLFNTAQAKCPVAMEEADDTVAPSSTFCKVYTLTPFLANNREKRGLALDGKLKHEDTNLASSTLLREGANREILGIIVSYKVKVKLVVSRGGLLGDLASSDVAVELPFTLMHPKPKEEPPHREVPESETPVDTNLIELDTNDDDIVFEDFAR
T1 sequence (P29066 1-393 L129G): as the sequence (P29066 1-393 Y249A) above, with L129G, A249Y counted along it
T2 sequence (P29066 1-393 P133A): as the sequence (P29066 1-393 Y249A) above, with P133A, A249Y counted along it
T3 sequence (P29066 1-393 K138A): as the sequence (P29066 1-393 Y249A) above, with K138A, A249Y counted along it

C=C1C(=O)[C@]23[C@H](O)[C@H]1CC[C@H]2[C@@]12CO[C@]3(O)[C@@H](O)[C@@H]1C(C)(C)CC[C@@H]2O [Cmpd-5, (1S,4aR,5S,6S,6aR,9S,11aS,11bS,14R)-1,5,6,14-tetrahydroxy−4,4-dimethyl-8-methylenedecahydro-1H-6,11b-(epoxymethano)-6a,9-methanocyclohepta[a]naphthalen-7(8H)-one]
Kd (βARR1 L129G): 2000 ± 700 nM
Kd (βARR1 P133A): 1000 ± 400 nM
Kd (βARR1 K138A): 1000 ± 300 nM
Kd fold over WT, βARR1 Y249A (βARR1 Y249A): 10.6 fold
Kd (βARR1 Y249A; 25 °C): 3.8 ± 0.9 µM
effect on AngII-induced active βarr2 FlAsH-BRET signature [1]: largely attenuates this active signature
binding affinity from functional assays (β-arrestin): 2 to 10 µM

Source: PMC13489962, “Small-molecule modulation of β-arrestins” (Nature, 2026)
